By IC50 is commonly meant the concentration needed to halve the response being measured.

Experimental findings from patent publication US12473304B2, “Heterocyclic PAD4 inhibitors” (BRISTOL-MYERS SQUIBB COMPANY, priority 2020, dated 2025) are described below.

The target in the experiment is human PAD4 (hPAD4) (Homo sapiens (Human), UniProt Q9UM07). As to the kind of experiment: RFMS Human PAD4 Functional Assay 1. The experiment is classed as biochemical. The following applies: RFMS assay 1; 5 nM hPAD4, 250 μM BAEE substrate, 50 μM calcium, 37° C. The procedure, abridged:
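Recombinant hPAD4 (5 nM) was preincubated with compound (top 50 μM, 0.5% DMSO) for 30 min at 37 °C, then reacted with 250 μM BAEE for 90 min at 37 °C in pH 7.5 HEPES buffer with 50 μM calcium and 5 μM TPEN. Product was derivatized with phenyl glyoxal and quantified by RapidFire MS.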

Sequence of human PAD4 (hPAD4) (Q9UM07 whole entry): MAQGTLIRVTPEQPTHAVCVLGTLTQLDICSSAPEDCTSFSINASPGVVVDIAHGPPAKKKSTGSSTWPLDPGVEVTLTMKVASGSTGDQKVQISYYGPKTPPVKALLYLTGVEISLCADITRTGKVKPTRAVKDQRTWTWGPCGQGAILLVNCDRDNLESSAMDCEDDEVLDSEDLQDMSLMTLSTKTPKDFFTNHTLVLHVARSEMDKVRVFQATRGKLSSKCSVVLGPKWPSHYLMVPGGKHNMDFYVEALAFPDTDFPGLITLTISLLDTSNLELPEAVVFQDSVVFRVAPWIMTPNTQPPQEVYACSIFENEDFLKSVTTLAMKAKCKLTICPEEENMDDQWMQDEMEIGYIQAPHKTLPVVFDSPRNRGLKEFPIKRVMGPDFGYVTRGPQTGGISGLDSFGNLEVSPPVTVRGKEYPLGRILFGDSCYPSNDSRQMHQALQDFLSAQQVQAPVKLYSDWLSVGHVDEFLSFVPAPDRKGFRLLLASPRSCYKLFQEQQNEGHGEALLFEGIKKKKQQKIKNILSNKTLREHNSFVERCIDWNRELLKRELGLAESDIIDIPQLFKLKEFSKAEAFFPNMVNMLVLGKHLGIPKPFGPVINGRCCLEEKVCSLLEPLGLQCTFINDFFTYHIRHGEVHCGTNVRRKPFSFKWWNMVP

Consider `CO[C@@H](C)C(=O)N1CCC(c2cccc3cc(-c4nn5cc(C(=O)N6C[C@H](N)C[C@@H](F)C6)ccc5c4C)n(CC4CC4)c23)CC1` [Example 459, (S)-1-(4-(2-(6-((3R,5R)-3-amino-5-fluoropiperidine-1-carbonyl)-3-methylpyrazolo[1,5-a]pyridin-2-yl)-1-(cyclopropylmethyl)-1H-indol-7-yl)piperidin-1-yl)-2-methoxypropan-1-one], for which the IC50 was 140 nM.
In the case of `Cc1c(-c2cc3ccc(-c4ccc(OC(F)F)c(F)c4)nc3n2CC2CC2)nn2cc(C(=O)N3CC4CCC3[C@@H]4N)cc(F)c12` (stereo partly drawn) [Example 44, ((7R)-7-Amino-2-azabicyclo[2.2.1]heptan-2-yl)(2-(1-(cyclopropylmethyl)-6-(4-(difluoromethoxy)-3-fluorophenyl)-1H-pyrrolo[2,3-b]pyridin-2-yl)-4-fluoro-3-methylpyrazolo[1,5-a]pyridin-6-yl)methanone] it was 1480 nM; in that of `COc1cc(C(=O)N2CC3CCC2[C@@H]3N)cn2nc(-c3cc4ccnc(OCC5CNC(=O)C5)c4n3CC3CC3)c(C)c12` (mixture of isomers) [Example 608, 4-(((2-(6-((7R)-7-Amino-2-azabicyclo[2.2.1]heptane-2-carbonyl)-4-methoxy-3-methylpyrazolo[1,5-a]pyridin-2-yl)-1-(cyclopropylmethyl)-1H-pyrrolo[2,3-c]pyridin-7-yl)oxy)methyl)pyrrolidin-2-one (mixture of diastereomers)], 10 nM.
The figure for `CC(=O)N(C)C1CCN(c2ccc3cc(-c4nn5cc(C(=O)N6C[C@H](N)C[C@@H](F)C6)ccc5c4C)n(CC4CC4)c3c2)CC1` [Example 353, N-[1-(2-{6-[(3R,5R)-3-Amino-5-fluoropiperidine-1-carbonyl]-3-methylpyrazolo[1,5-a]pyridin-2-yl}-1-(cyclopropylmethyl)-1H-indol-6-yl)piperidin-4-yl]-N-methylacetamide] is 610 nM; for `CO[C@H](C)C(=O)N1CC(c2cccc3cc(-c4nn5cc(C(=O)N6CCC[C@@H](N)C6)ccc5c4C)n(CC4CC4)c23)C1` [Example 541, (R)-1-(3-(2-(6-((R)-3-Aminopiperidine-1-carbonyl)-3-methylpyrazolo[1,5-a]pyridin-2-yl)-1-(cyclopropylmethyl)-1H-indol-7-yl)azetidin-1-yl)-2-methoxypropan-1-one] it is 2530 nM; for `Cc1c(-c2cc3cccc(OCCn4cc(N)cn4)c3n2CC2CC2)nn2cc(C(=O)N3C[C@H](N)C[C@@H](F)C3)ccc12` [Example 583, (2-(7-(2-(4-Amino-1H-pyrazol-1-yl)ethoxy)-1-(cyclopropylmethyl)-1H-indol-2-yl)-3-methylpyrazolo[1,5-a]pyridin-6-yl)((3R,5R)-3-amino-5-fluoropiperidin-1-yl)methanone] it is 1610 nM.
The figure for `COc1cc(C(=O)N2C[C@H](N)C[C@@H](F)C2)cn2nc(-c3sc4cccc(-c5cnn(CCO)c5)c4c3CC3CC3)c(C)c12` [Example 621, ((3R,5R)-3-Amino-5-fluoropiperidin-1-yl)(2-(3-(cyclopropylmethyl)-4-(1-(2-hydroxyethyl)-1H-pyrazol-4-yl)benzo[b]thiophen-2-yl)-4-methoxy-3-methylpyrazolo[1,5-a]pyridin-6-yl)methanone] is 140 nM; for `COc1cc(C(=O)N2CC3CCC2[C@H]3N)cn2nc(-c3cc4ccnc(OC[C@H]5CCC(=O)N5)c4n3CC3CC3)c(C)c12` (stereo in doubt) [Example 607, (5R)-5-(((2-(6-((7S)-7-Amino-2-azabicyclo[2.2.1]heptane-2-carbonyl)-4-methoxy-3-methylpyrazolo[1,5-a]pyridin-2-yl)-1-(cyclopropylmethyl)-1H-pyrrolo[2,3-c]pyridin-7-yl)oxy)methyl)pyrrolidin-2-one] it is 50 nM; for `COc1cc(C(=O)N2C[C@H](N)C[C@@H](F)C2)cn2nc(-c3cc4cccc(OCCn5cncn5)c4n3CC3CC3)c(C)c12` [Example 556, (2-(7-(2-(1H-1,2,4-Triazol-1-yl)ethoxy)-1-(cyclopropylmethyl)-1H-indol-2-yl)-4-methoxy-3-methylpyrazolo[1,5-a]pyridin-6-yl)((3R,5R)-3-amino-5-fluoropiperidin-1-yl)methanone] it is 20 nM.
For `Cc1c(-c2cc3cccc(OC[C@@H]4CCC(=O)N4)c3n2CC2CC2)nn2cc(C(=O)N3CCC[C@@H](N)C3)ccc12` [Example 584, (S)-5-(((2-(6-((R)-3-Aminopiperidine-1-carbonyl)-3-methylpyrazolo[1,5-a]pyridin-2-yl)-1-(cyclopropylmethyl)-1H-indol-7-yl)oxy)methyl)pyrrolidin-2-one], the IC50 worked out at 50 nM.
Turning to `Cc1c(-c2cc3ccc(Cl)nc3n2CC2CC2)nn2cc(C(=O)N3CC4CCC3[C@@H]4N)cnc12` (stereo partly drawn) [Example 108, ((7R)-7-Amino-2-azabicyclo[2.2.1]heptan-2-yl)(2-(6-chloro-1-(cyclopropylmethyl)-1H-pyrrolo[2,3-b]pyridin-2-yl)-3-methylpyrazolo[1,5-a]pyrimidin-6-yl)methanone], the IC50 came out at 907 nM.
In the case of `Cc1c(-c2cc3cccc(C4CN(C(=O)C5CC(O)(C(F)(F)F)C5)C4)c3n2CC2CC2)nn2cc(C(=O)N3CCC[C@@H](N)C3)ccc12` (mixture of isomers) [Example 535, (R)-(3-Aminopiperidin-1-yl)(2-(1-(cyclopropylmethyl)-7-(1-(3-hydroxy-3-(trifluoromethyl)cyclobutane-1-carbonyl)azetidin-3-yl)-1H-indol-2-yl)-3-methylpyrazolo[1,5-a]pyridin-6-yl)methanone] it was 70 nM; in that of `Cc1c(-c2cc3ccc(-c4cc(F)c(O)c(F)c4)nc3n2CC2CC2)nn2cc(C(=O)N3CC4CCC3[C@@H]4N)ccc12` (stereo partly drawn) [Example 74, ((7R)-7-Amino-2-azabicyclo[2.2.1]heptan-2-yl)(2-(1-(cyclopropylmethyl)-6-(3,5-difluoro-4-hydroxyphenyl)-1H-pyrrolo[2,3-b]pyridin-2-yl)-3-methylpyrazolo[1,5-a]pyridin-6-yl)methanone], 425 nM.
Turning to `Cc1c(-c2cc3ccc(-c4cnn(C(C)C)c4)cc3n2CC2CC2)oc2cc(C(=O)N3CC4CCC3[C@@H]4N)ccc12` (stereo partly drawn) [Example 180, ((7R)-7-Amino-2-azabicyclo[2.2.1]heptan-2-yl)(2-(1-(cyclopropylmethyl)-6-(1-isopropyl-1H-pyrazol-4-yl)-1H-indol-2-yl)-3-methylbenzofuran-6-yl)methanone], the IC50 was found to be 220 nM.
As for `COc1cc(C(=O)N2C[C@H](N)C[C@@H](F)C2)cn2nc(-c3cc4cccc(OCC5CNC(=O)C5)c4n3CC3CC3)c(C)c12` (single isomer, unassigned) [Example 565], the IC50 came to 20 nM.
In the case of `Cc1c(-c2cc3ccc(-c4ccc(N5CCNC5=O)cc4)nc3n2CC2CC2)nn2cc(C(=O)N3CCC[C@@H](N)C3)cc(F)c12` [Example 280, 1-[4-(2-{6-[(3R)-3-Aminopiperidine-1-carbonyl]-4-fluoro-3-methylpyrazolo[1,5-a]pyridin-2-yl}-1-(cyclopropylmethyl)-1H-pyrrolo[2,3-b]pyridin-6-yl)phenyl]imidazolidin-2-one] it was 1090 nM.
